# Reference: US7238362B2, “Dithianon-based fungicidal mixtures” (BASF Aktiengesellschaft, priority 2002, dated 2007)
# System: Alternaria solani
# Test: Activity against early blight of tomato caused by Alternaria solani (protective spray, potted tomato plants)
# Type: in vivo
# Settings: individual active compound, tomato leaves, evaluated after 5 days
# Experimental: The active compounds were prepared separately as a stock solution comprising 0.25% by weight of active compound in acetone or DMSO. 1% by weight of the emulsifier Uniperol® EL (wetting agent having emulsifying and dispersing action based on ethoxylated alkylphenols) was added to this solution, and the mixture was diluted with water to the desired concentration.
# Leaves of potted plants of the cultivar “Groβe Fleischtomate St. Pierre” were sprayed to runoff point with an aqueous suspension having the concentration of active compounds stated below. The next day, the leaves were infected with an aqueous […] suspension of Alternaria solani in 2% biomalt solution having a density of 0.17×10^6 spores/ml. The plants were then placed in a water-vapor-saturated chamber at temperatures of between 20 and 22 C. After 5 days, the infection on the leaves of the untreated, but infected control plants had developed to such an extent that the infection could be determined visually in %.
# Evaluation was carried out by determining the infected leaf area in per cent. These percentages were converted into efficacies.
# The efficacy (E) is calculated as follows using Abbot's formula: E=(1−α/β)·100 • α corresponds to the fungal infection of the treated plants in % and • β corresponds to the fungal infection of the untreated (control) plants in %
# An efficacy of 0 means that the infection level of the treated plants corresponds to that of the untreated control plants; an efficacy of 100 means that the treated plants were not infected. […]
SMILES,Efficacy in % of the untreated control (8 ppm in the spray liquor) [%],Efficacy in % of the untreated control (16 ppm in the spray liquor) [%],Efficacy in % of the untreated control (31 ppm in the spray liquor) [%],Efficacy in % of the untreated control (63 ppm in the spray liquor) [%]
"N#Cc1sc2c(=O)c3ccccc3c(=O)c=2sc1C#N [I, dithianon]",0,0,27,63
"O=C(Nc1ccccc1-c1ccc(Cl)cc1)c1cccnc1Cl [II-1, boscalid]",63,76,82,88
O=C(Nc1ccccc1-c1ccc(F)cc1)c1cccnc1Cl [II-2],27,39,27,88
